Assay results taken from US20180243298A1, “TRPV3 MODULATORS” (AbbVie Inc., priority 2015, published 2018).

molecular target: T1, human TRPV3 (Homo sapiens, UniProt Q8NET8); experiment: Calcium flux assay (FLIPR TETRA), recombinant HEK293 cells expressing TRPV3, 2-APB response; type: cell-based; details: 2-APB at its EC80
T1 construct: expressed in transfected cells; host or cells: HEK293
T1 sequence (Q8NET8 1-790): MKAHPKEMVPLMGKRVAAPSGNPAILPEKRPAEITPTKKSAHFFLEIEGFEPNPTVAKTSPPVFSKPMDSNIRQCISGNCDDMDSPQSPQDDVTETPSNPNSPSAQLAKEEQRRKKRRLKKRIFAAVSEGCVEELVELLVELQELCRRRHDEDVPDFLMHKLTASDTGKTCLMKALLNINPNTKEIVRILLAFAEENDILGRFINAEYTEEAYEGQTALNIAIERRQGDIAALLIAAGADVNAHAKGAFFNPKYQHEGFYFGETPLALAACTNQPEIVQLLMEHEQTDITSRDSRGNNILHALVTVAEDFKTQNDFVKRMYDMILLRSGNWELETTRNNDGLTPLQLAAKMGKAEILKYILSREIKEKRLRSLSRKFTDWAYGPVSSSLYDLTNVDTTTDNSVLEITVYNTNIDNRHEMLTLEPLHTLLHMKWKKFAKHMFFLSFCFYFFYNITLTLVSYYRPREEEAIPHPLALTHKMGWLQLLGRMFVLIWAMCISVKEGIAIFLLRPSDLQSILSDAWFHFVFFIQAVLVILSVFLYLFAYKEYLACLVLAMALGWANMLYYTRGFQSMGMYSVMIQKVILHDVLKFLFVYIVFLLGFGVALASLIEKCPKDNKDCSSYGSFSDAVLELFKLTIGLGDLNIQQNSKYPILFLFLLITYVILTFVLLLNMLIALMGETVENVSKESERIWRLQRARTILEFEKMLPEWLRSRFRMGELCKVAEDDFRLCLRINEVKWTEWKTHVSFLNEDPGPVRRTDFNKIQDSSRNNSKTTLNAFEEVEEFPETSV
In short: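 HEK293 cells stably expressing human or mouse TRPV3, loaded with Calcium-4 dye for 90–120 min, read on FLIPR TETRA. Peak fluorescence rise over baseline expressed as percent of the maximal response to 2-APB at its EC80 without compound.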

IC50 [µM] | SMILES
< 0.05 | COc1ncnc(OC)c1C(=O)Nc1nc(C(F)(F)F)c(C(=O)c2ccc(F)cn2)s1 [Example 131, N-{5-[(5-fluoropyridin-2-yl)carbonyl]-4-(trifluoromethyl)-1,3-thiazol-2-yl}-4,6-dimethoxypyrimidine-5-carboxamide]
> 1 | COc1ncnc(OC)c1C(=O)Nc1nc(C(F)(F)F)c(C(C)(C)O)s1 [Example 116, N-[5-(2-hydroxypropan-2-yl)-4-(trifluoromethyl)-1,3-thiazol-2-yl]-4,6-dimethoxypyrimidine-5-carboxamide]
0.05 to 0.1 | COc1ncnc(OC)c1C(=O)Nc1nc(C(F)(F)F)c(C2CCCO2)s1 (stereo not shown) [Example 144, 4,6-dimethoxy-N-[5-(tetrahydrofuran-2-yl)-4-(trifluoromethyl)-1,3-thiazol-2-yl]pyrimidine-5-carboxamide]
< 0.05 | COc1ncnc(OC)c1C(=O)Nc1nc(-c2ccc(OC(F)(F)F)cn2)cs1 [Example 92, 4,6-dimethoxy-N-{4-[5-(trifluoromethoxy)pyridin-2-yl]-1,3-thiazol-2-yl}pyrimidine-5-carboxamide]
0.05 to 0.1 | COc1ncnc(OC)c1C(=O)Nc1nc(C(F)(F)F)c(-c2ccc(Cl)cc2)s1 [Example 4, N-[5-(4-chlorophenyl)-4-(trifluoromethyl)-1,3-thiazol-2-yl]-4,6-dimethoxypyrimidine-5-carboxamide]
0.05 to 0.1 | COc1ncnc(OC)c1C(=O)Nc1nc(C(F)(F)F)c(-c2cccc(C3(C#N)COC3)n2)s1 [Example 154, N-{5-[6-(3-cyanooxetan-3-yl)pyridin-2-yl]-4-(trifluoromethyl)-1,3-thiazol-2-yl}-4,6-dimethoxypyrimidine-5-carboxamide]
< 0.05 | COc1ncnc(OC)c1C(=O)Nc1nc(C(F)(F)F)c(C2=CCCO2)s1 [Example 143, N-[5-(4,5-dihydrofuran-2-yl)-4-(trifluoromethyl)-1,3-thiazol-2-yl]-4,6-dimethoxypyrimidine-5-carboxamide]
0.1 to 0.5 | CCn1cc(-c2sc(NC(=O)c3c(OC)ncnc3OC)nc2C(F)(F)F)cn1 [Example 177, N-[5-(1-ethyl-1H-pyrazol-4-yl)-4-(trifluoromethyl)-1,3-thiazol-2-yl]-4,6-dimethoxypyrimidine-5-carboxamide]
0.5 to 1 | COc1ncnc(OC)c1C(=O)Nc1nc(C(F)(F)F)c(-c2cnccn2)s1 [Example 28, 4,6-dimethoxy-N-[5-(pyrazin-2-yl)-4-(trifluoromethyl)-1,3-thiazol-2-yl]pyrimidine-5-carboxamide]
< 0.05 | COC/C=C/c1sc(NC(=O)c2c(OC)ncnc2OC)nc1C(F)(F)F [Example 18, 4,6-dimethoxy-N-{5-[(1E)-3-methoxyprop-1-en-1-yl]-4-(trifluoromethyl)-1,3-thiazol-2-yl}pyrimidine-5-carboxamide]
0.1 to 0.5 | COc1ncnc(OC)c1C(=O)Nc1nc(C(F)(F)F)c(-c2ccnn2C)s1 [Example 176, 4,6-dimethoxy-N-[5-(1-methyl-1H-pyrazol-5-yl)-4-(trifluoromethyl)-1,3-thiazol-2-yl]pyrimidine-5-carboxamide]
< 0.05 | COc1ncnc(OC)c1C(=O)Nc1nc(C(F)(F)F)c(-c2ccc(CN3CCOCC3)cc2)s1 [Example 198, 4,6-dimethoxy-N-{5-[4-(morpholin-4-ylmethyl)phenyl]-4-(trifluoromethyl)-1,3-thiazol-2-yl}pyrimidine-5-carboxamide]
0.1 to 0.5 | COc1ncnc(OC)c1C(=O)Nc1nc(C(F)(F)F)c(C(C)=O)s1 [Example 133, N-[5-acetyl-4-(trifluoromethyl)-1,3-thiazol-2-yl]-4,6-dimethoxypyrimidine-5-carboxamide]

More lines, now with the values behind:

SMILES | IC50 [µM]
COc1ncnc(O)c1C(=O)Nc1nc(-c2ccc(C(F)(F)F)cn2)c(C(=O)N(C)C)s1 [Example 79, N-{5-(dimethylcarbamoyl)-4-[5-(trifluoromethyl)pyridin-2-yl]-1,3-thiazol-2-yl}-4-hydroxy-6-methoxypyrimidine-5-carboxamide] | > 1
COc1ncnc(OC)c1C(=O)Nc1nc(C(F)(F)F)c(C#C[Si](C)(C)C)s1 [Example 10, 4,6-dimethoxy-N-{4-(trifluoromethyl)-5-[(trimethylsilyl)ethynyl]-1,3-thiazol-2-yl}pyrimidine-5-carboxamide] | < 0.05
CO/N=C(\C)c1sc(NC(=O)c2c(OC)ncnc2OC)nc1-c1ccc(C(F)(F)F)cn1 [Example 89, 4,6-dimethoxy-N-{5-[(1E)-N-methoxyethanimidoyl]-4-[5-(trifluoromethyl)pyridin-2-yl]-1,3-thiazol-2-yl}pyrimidine-5-carboxamide] | < 0.05
CCc1sc(NC(=O)c2c(OC)ncnc2OC)nc1C(F)(F)F [Example 6, N-[5-ethyl-4-(trifluoromethyl)-1,3-thiazol-2-yl]-4,6-dimethoxypyrimidine-5-carboxamide] | < 0.05
COc1ncnc(OC)c1C(=O)Nc1nc(C(F)(F)F)c(C2(C)OCCO2)s1 [Example 137, 4,6-dimethoxy-N-[5-(2-methyl-1,3-dioxolan-2-yl)-4-(trifluoromethyl)-1,3-thiazol-2-yl]pyrimidine-5-carboxamide] | 0.05 to 0.1
CCc1sc(NC(=O)c2c(OC)ncnc2OC)nc1-c1ccccc1 [Example 26, N-(5-ethyl-4-phenyl-1,3-thiazol-2-yl)-4,6-dimethoxypyrimidine-5-carboxamide] | 0.05 to 0.1
COc1ncnc(OC)c1C(=O)Nc1nc(C(F)(F)F)c(-c2ccc(C(C)(C)C#N)cn2)s1 [Example 158, N-{5-[5-(2-cyanopropan-2-yl)pyridin-2-yl]-4-(trifluoromethyl)-1,3-thiazol-2-yl}-4,6-dimethoxypyrimidine-5-carboxamide] | < 0.05
COc1ncnc(OC)c1C(=O)Nc1nc(C(F)(F)F)c(CNC(C)(C)C)s1 [Example 56, N-{5-[(tert-butylamino)methyl]-4-(trifluoromethyl)-1,3-thiazol-2-yl}-4,6-dimethoxypyrimidine-5-carboxamide] | > 1
COc1ncnc(OC)c1C(=O)Nc1nc(C(C)(C)C)c(C#N)s1 [Example 189, N-(4-tert-butyl-5-cyano-1,3-thiazol-2-yl)-4,6-dimethoxypyrimidine-5-carboxamide] | < 0.05
COc1ncnc(OC)c1C(=O)Nc1nc(C(F)(F)F)c(-c2cnc(N3CCOCC3)c(C#N)c2)s1 [Example 204, N-{5-[5-cyano-6-(morpholin-4-yl)pyridin-3-yl]-4-(trifluoromethyl)-1,3-thiazol-2-yl}-4,6-dimethoxypyrimidine-5-carboxamide] | < 0.05
COc1ncnc(OC)c1C(=O)Nc1nc(C(F)(F)F)c(-c2ccnn2CC2CC2)s1 [Example 188, N-{5-[1-(cyclopropylmethyl)-1H-pyrazol-5-yl]-4-(trifluoromethyl)-1,3-thiazol-2-yl}-4,6-dimethoxypyrimidine-5-carboxamide] | < 0.05
COc1ncnc(OC)c1C(=O)Nc1nc(C(F)(F)F)c(-c2ccccn2)s1 [Example 45, 4,6-dimethoxy-N-[5-(pyridin-2-yl)-4-(trifluoromethyl)-1,3-thiazol-2-yl]pyrimidine-5-carboxamide] | 0.1 to 0.5
CO/N=C(/C)c1sc(NC(=O)c2c(OC)ncnc2OC)nc1C(F)(F)F [Example 136, 4,6-dimethoxy-N-{5-[(1Z)—N-methoxyethanimidoyl]-4-(trifluoromethyl)-1,3-thiazol-2-yl}pyrimidine-5-carboxamide] | < 0.05
COCCCc1sc(NC(=O)c2c(OC)ncnc2OC)nc1C(F)(F)F [Example 16, 4,6-dimethoxy-N-[5-(3-methoxypropyl)-4-(trifluoromethyl)-1,3-thiazol-2-yl]pyrimidine-5-carboxamide] | < 0.05
COc1ncnc(OC)c1C(=O)Nc1nc(CCc2ccc(F)cc2)cs1 [Example 107, N-{4-[2-(4-fluorophenyl)ethyl]-1,3-thiazol-2-yl}-4,6-dimethoxypyrimidine-5-carboxamide] | 0.5 to 1
COc1ncnc(OC)c1C(=O)Nc1nc(C(F)(F)F)c(-c2cccc(C(F)(F)F)n2)s1 [Example 30, 4,6-dimethoxy-N-{4-(trifluoromethyl)-5-[6-(trifluoromethyl)pyridin-2-yl]-1,3-thiazol-2-yl}pyrimidine-5-carboxamide] | < 0.05
COc1ncnc(OC)c1C(=O)Nc1nc(C(F)(F)F)c(C(F)(F)F)s1 [Example 163, N-[4,5-bis(trifluoromethyl)-1,3-thiazol-2-yl]-4,6-dimethoxypyrimidine-5-carboxamide] | 0.05 to 0.1
COc1ncnc(OC)c1C(=O)Nc1nc(-c2ccc(C(F)(F)F)cn2)c(CCCO)s1 [Example 96, N-{5-(3-hydroxypropyl)-4-[5-(trifluoromethyl)pyridin-2-yl]-1,3-thiazol-2-yl}-4,6-dimethoxypyrimidine-5-carboxamide] | 0.1 to 0.5
